The values below come from patent US11242343B2 (Incyte Corporation, priority 2016, dated 2022).

The assay deals with HPK1 (Homo sapiens, UniProt Q92918). Briefly: HPK1 Kinase Binding Assay. The settings on record: LanthaScreen tracer 222 binding, one hour incubation at 25° C. As to the method:
Example A. HPK1 Kinase Binding Assay
A stock solution of 1 mM test compound was prepared in DMSO. The compound plate was prepared by 3-fold and 11-point serial dilutions. 0.1 μL of the compound in DMSO was transferred from the compound plate to the white 384 well polystyrene plates. The assay buffer contained 50 mM HEPES, pH 7.5, 0.01% Tween-20, 5 mM MgCl2, 0.01% BSA, and 5 mM DTT. 5 μl of 4 nM active HPK1 (SignalChem M23-11G) prepared in the buffer was added to the plate. The enzyme concentration given was based on the given stock concentration reported by the vender. 5 μl of 18 nM tracer 222 (ThermoFisher PV6121) and 4 nM LanthaScreen Eu-Anti GST antibody (ThermoFisher PV5595) were added. After one hour incubation at 25° C., the plates were read on a PHERAstar FS plate reader (BMG Labtech). Ki values were determined.
In general terms: Time-resolved FRET reads energy transfer from a long-lived donor to a nearby acceptor.

Sequence of HPK1 (Q92918 whole entry, looked up): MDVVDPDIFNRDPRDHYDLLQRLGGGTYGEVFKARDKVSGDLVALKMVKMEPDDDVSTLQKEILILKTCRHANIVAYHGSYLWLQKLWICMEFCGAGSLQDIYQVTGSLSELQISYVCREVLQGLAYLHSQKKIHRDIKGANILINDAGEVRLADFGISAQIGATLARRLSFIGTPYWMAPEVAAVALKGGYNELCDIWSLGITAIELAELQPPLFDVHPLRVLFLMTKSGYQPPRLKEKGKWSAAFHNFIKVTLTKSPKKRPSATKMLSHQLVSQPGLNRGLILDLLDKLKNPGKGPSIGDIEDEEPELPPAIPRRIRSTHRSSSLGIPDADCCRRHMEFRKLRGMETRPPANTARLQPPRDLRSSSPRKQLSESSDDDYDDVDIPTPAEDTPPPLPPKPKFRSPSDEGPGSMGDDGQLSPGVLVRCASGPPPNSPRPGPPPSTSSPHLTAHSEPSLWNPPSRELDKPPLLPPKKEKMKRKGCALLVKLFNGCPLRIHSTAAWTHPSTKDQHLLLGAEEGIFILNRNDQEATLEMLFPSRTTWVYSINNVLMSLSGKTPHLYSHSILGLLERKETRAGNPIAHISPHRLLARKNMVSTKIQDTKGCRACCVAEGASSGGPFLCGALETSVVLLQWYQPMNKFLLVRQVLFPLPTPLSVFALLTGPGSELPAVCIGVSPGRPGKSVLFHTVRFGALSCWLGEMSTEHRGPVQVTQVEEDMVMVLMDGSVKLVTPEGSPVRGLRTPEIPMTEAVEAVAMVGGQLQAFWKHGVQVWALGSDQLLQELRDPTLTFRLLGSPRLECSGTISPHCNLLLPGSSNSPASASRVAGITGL

For orientation: Ki means the equilibrium dissociation constant of an inhibitor or competing ligand from its target. As to `Cc1ccccc1-c1ccc2[nH]nc(-c3ccc(N4CCN(C)CC4)cc3)c2n1` [Example 3], the Ki was no more than 100 nM.
`CN1CCN(c2ccc(-c3n[nH]c4ccc(-c5ccccc5F)nc34)cc2)CC1` [Example 4, 5-(2-Fluorophenyl)-3-(4-(4-methylpiperazin-1-yl)phenyl)-1H-pyrazolo[4,3-b]pyridine] yielded an inhibitory constant (Ki) of no more than 100 nM.
Next, `CN1CCN(c2ccc(-c3n[nH]c4ccc(-c5ccccc5C(F)(F)F)nc34)cc2)CC1` [Example 5, 3-(4-(4-Methylpiperazin-1-yl)phenyl)-5-(2-(trifluoromethyl)phenyl)-1H-pyrazolo[4,3-b]pyridine]: no more than 100 nM; `Cc1c(N)cccc1-c1ccc2[nH]nc(-c3ccc(N4CCN(C)CC4)cc3)c2n1` [Example 6, 2-Methyl-3-(3-(4-(4-methylpiperazin-1-yl)phenyl)-1H-pyrazolo[4,3-b]pyridin-5-yl)aniline]: no more than 100 nM; `Cc1cccc(F)c1-c1ccc2[nH]nc(-c3ccc(N4CCN(C)CC4)cc3)c2n1` [Example 7, 5-(2-Fluoro-6-methylphenyl)-3-(4-(4-methylpiperazin-1-yl)phenyl)-1H-pyrazolo[4,3-b]pyridine]: no more than 100 nM.
The same measure for `COc1cccc(F)c1-c1ccc2[nH]nc(-c3ccc(N4CCN(C)CC4)cc3)c2n1` [Example 8, 5-(2-Fluoro-6-methoxyphenyl)-3-(4-(4-methylpiperazin-1-yl)phenyl)-1H-pyrazolo[4,3-b]pyridine]: no more than 100 nM; for `CN1CCN(c2ccc(-c3n[nH]c4ccc(-c5cccc(F)c5F)nc34)cc2)CC1` [Example 9, 5-(2,3-Difluorophenyl)-3-(4-(4-methylpiperazin-1-yl)phenyl)-1H-pyrazolo[4,3-b]pyridine]: no more than 100 nM; for `COc1ccc(F)c(F)c1-c1ccc2[nH]nc(-c3ccc(N4CCN(C)CC4)cc3)c2n1` [Example 10, 5-(2,3-Difluoro-6-methoxyphenyl)-3-(4-(4-methylpiperazin-1-yl)phenyl)-1H-pyrazolo[4,3-b]pyridine]: no more than 100 nM.
`CN1CCN(c2ccc(-c3n[nH]c4ccc(-c5c(F)cccc5CO)nc34)cc2)CC1` [Example 11, (3-Fluoro-2-(3-(4-(4-methylpiperazin-1-yl)phenyl)-1H-pyrazolo[4,3-b]pyridin-5-yl)phenyl)methanol] came in with a Ki of no more than 100 nM.
The same measure for `CCOC(=O)c1cccc(-c2ccc3[nH]nc(-c4ccc(N5CCN(C)CC5)cc4)c3n2)c1F` [Example 12, Ethyl 2-fluoro-3-(3-(4-(4-methylpiperazin-1-yl)phenyl)-1H-pyrazolo[4,3-b]pyridin-5-yl)benzoate]: no more than 100 nM.
Next, `CN1CCN(c2ccc(-c3n[nH]c4ccc(-c5cccc(NS(C)(=O)=O)c5F)nc34)cc2)CC1` [Example 13, N-(2-Fluoro-3-(3-(4-(4-methylpiperazin-1-yl)phenyl)-1H-pyrazolo[4,3-b]pyridin-5-yl)phenyl)methanesulfonamide]: no more than 100 nM.
Next, `CN1CCN(c2ccc(-c3n[nH]c4ccc(-c5ccccc5C#N)nc34)cc2)CC1` [Example 19]: no more than 100 nM; `CN1CCN(c2ccc(-c3n[nH]c4ccc(-c5cccc6[nH]ncc56)nc34)cc2)CC1` [Example 23, 5-(1H-Indazol-4-yl)-3-(4-(4-methylpiperazin-1-yl)phenyl)-1H-pyrazolo[4,3-b]pyridine]: no more than 100 nM; `CN1CCN(c2ccc(-c3n[nH]c4ccc(-c5cccnc5)nc34)cc2)CC1` [Example 24, 3-(4-(4-Methylpiperazin-1-yl)phenyl)-5-(pyridin-3-yl)-1H-pyrazolo[4,3-b]pyridine]: no more than 100 nM.
The molecule `CN1CCN(c2ccc(-c3n[nH]c4ccc(-c5cncnc5)nc34)cc2)CC1` [Example 26, 3-(4-(4-Methylpiperazin-1-yl)phenyl)-5-(pyrimidin-5-yl)-1H-pyrazolo[4,3-b]pyridine] had a Ki of no more than 100 nM.
The same measure for `CN1CCN(c2ccc(-c3n[nH]c4ccc(-c5cnc6c(c5)CC(=O)N6)nc34)cc2)CC1` [Example 27, 5-(3-(4-(4-Methylpiperazin-1-yl)phenyl)-1H-pyrazolo[4,3-b]pyridin-5-yl)-1H-pyrrolo[2,3-b]pyridin-2(3H)-one]: no more than 100 nM; for `CN1CCN(c2ccc(-c3n[nH]c4ccc(-c5cnc6cnn(C)c6c5)nc34)cc2)CC1` [Example 28, 1′-Methyl-3-(4-(4-methylpiperazin-1-yl)phenyl)-1H,1′H-5,6′-bipyrazolo[4,3-b]pyridine]: no more than 100 nM.
Next, `CN1CCN(c2ccc(-c3n[nH]c4ccc(-c5cncc(-c6ncco6)c5)nc34)cc2)CC1` [Example 29, 2-(5-(3-(4-(4-Methylpiperazin-1-yl)phenyl)-1H-pyrazolo[4,3-b]pyridin-5-yl)pyridin-3-yl)oxazole]: no more than 100 nM; `CN1CCN(c2ccc(-c3n[nH]c4ccc(-c5cnc6c(c5)ncn6C)nc34)cc2)CC1` [Example 31, 5-(3-Methyl-3H-imidazo[4,5-b]pyridin-6-yl)-3-(4-(4-methylpiperazin-1-yl)phenyl)-1H-pyrazolo[4,3-b]pyridine]: no more than 100 nM; `CN1CCN(c2ccc(-c3n[nH]c4ccc(-c5cnc6nccnc6c5)nc34)cc2)CC1` [Example 32, 7-(3-(4-(4-methylpiperazin-1-yl)phenyl)-1H-pyrazolo[4,3-b]pyridin-5-yl)pyrido[3,2-b]pyrazine]: no more than 100 nM.
`CN1CCN(c2ccc(-c3n[nH]c4ccc(-c5cncc6oc(C(C)(C)C)nc56)nc34)cc2)CC1` [Example 33, 2-tert-Butyl-7-(3-(4-(4-methylpiperazin-1-yl)phenyl)-1H-pyrazolo[4,3-b]pyridin-5-yl)oxazolo[5,4-c]pyridine] displayed an inhibitory constant (Ki) of no more than 100 nM.
Next, `Cc1n[nH]cc1-c1ccc2[nH]nc(-c3ccc(N4CCN(C)CC4)cc3)c2n1` [Example 34, 5-(3-Methyl-1H-pyrazol-4-yl)-3-(4-(4-methylpiperazin-1-yl)phenyl)-1H-pyrazolo[4,3-b]pyridine]: no more than 100 nM; `CN1CCN(c2ccc(-c3n[nH]c4ccc(-c5cnn6ccccc56)nc34)cc2)CC1` [Example 35, 3-(4-(4-Methylpiperazin-1-yl)phenyl)-5-(pyrazolo[1,5-a]pyridin-3-yl)-1H-pyrazolo[4,3-b]pyridine]: no more than 100 nM; `CN1CCN(c2ccc(-c3n[nH]c4ccc(-c5cncc6ccccc56)nc34)cc2)CC1` [Example 37, 4-(3-(4-(4-Methylpiperazin-1-yl)phenyl)-1H-pyrazolo[4,3-b]pyridin-5-yl)isoquinoline]: no more than 100 nM.
The same measure for `CN1CCN(c2ccc(-c3n[nH]c4ccc(-c5cccc(C(N)=O)c5F)nc34)cc2)CC1` [Example 40, 2-Fluoro-3-(3-(4-(4-methylpiperazin-1-yl)phenyl)-1H-pyrazolo[4,3-b]pyridin-5-yl)benzamide]: no more than 100 nM; for `CNC(=O)c1cccc(-c2ccc3[nH]nc(-c4ccc(N5CCN(C)CC5)cc4)c3n2)c1F` [Example 41, 2-Fluoro-N-methyl-3-(3-(4-(4-methylpiperazin-1-yl)phenyl)-1H-pyrazolo[4,3-b]pyridin-5-yl)benzamide]: no more than 100 nM; for `CN1CCN(c2ccc(-c3n[nH]c4ccc(-c5cccc(C(=O)NCc6ccccc6)c5F)nc34)cc2)CC1` [Example 42, N-Benzyl-2-fluoro-3-(3-(4-(4-methylpiperazin-1-yl)phenyl)-1H-pyrazolo[4,3-b]pyridin-5-yl)benzamide]: no more than 100 nM.
With `CN1CCN(c2ccc(-c3n[nH]c4ccc(-c5cccc(C(=O)NCc6ccncc6)c5F)nc34)cc2)CC1` [Example 43, 2-Fluoro-3-(3-(4-(4-methylpiperazin-1-yl)phenyl)-1H-pyrazolo[4,3-b]pyridin-5-yl)-N-(pyridin-4-ylmethyl)benzamide], the Ki was no more than 100 nM.
`CN1CCN(c2ccc(-c3n[nH]c4ccc(-c5cccn6ccnc56)nc34)cc2)CC1` [Example 44, 5-(Imidazo[1,2-a]pyridin-8-yl)-3-(4-(4-methylpiperazin-1-yl)phenyl)-1H-pyrazolo[4,3-b]pyridine] returned a Ki of no more than 100 nM.
The same measure for `CN1CCN(c2ccc(-c3n[nH]c4ccc(-c5cccc6c5CCNC6)nc34)cc2)CC1` [Example 46, 5-(3-(4-(4-Methylpiperazin-1-yl)phenyl)-1H-pyrazolo[4,3-b]pyridin-5-yl)-1,2,3,4-tetrahydroisoquinoline]: no more than 100 nM.
The same measure for `CN1CCN(c2ccc(-c3n[nH]c4ccc(-c5cccc6c5CCC6N)nc34)cc2)CC1` (stereo not shown) [Example 47, 4-(3-(4-(4-Methylpiperazin-1-yl)phenyl)-1H-pyrazolo[4,3-b]pyridin-5-yl)-2,3-dihydro-1H-inden-1-amine]: no more than 100 nM; for `CNC1CCc2c(-c3ccc4[nH]nc(-c5ccc(N6CCN(C)CC6)cc5)c4n3)cccc21` (stereo not shown) [Example 48, N-Methyl-4-(3-(4-(4-methylpiperazin-1-yl)phenyl)-1H-pyrazolo[4,3-b]pyridin-5-yl)-2,3-dihydro-1H-inden-1-amine]: no more than 100 nM.
Next, `CN1CCN(c2ccc(-c3n[nH]c4ccc(-c5cccc6c5CCC6NCc5ccccc5)nc34)cc2)CC1` (stereo not shown) [Example 50, N-Benzyl-4-(3-(4-(4-methylpiperazin-1-yl)phenyl)-1H-pyrazolo[4,3-b]pyridin-5-yl)-2,3-dihydro-1H-inden-1-amine]: no more than 100 nM; `CN1CCC(NC(=O)c2ccc(-c3n[nH]c4ccc(-c5ccccc5F)nc34)cc2)CC1` [Example 55, 4-(5-(2-Fluorophenyl)-1H-pyrazolo[4,3-b]pyridin-3-yl)-N-(1-methylpiperidin-4-yl)benzamide]: no more than 100 nM.
